Experimental findings from ChEMBL document CHEMBL5532655, “Discovery of (R)-4-(8-methoxy-2-methyl-1-(1-phenylethy)-1H-imidazo[4,5-c]quinnolin-7-yl)-3,5-dimethylisoxazole as a potent and selective BET inhibitor for treatment of acute myeloid leukemia (AML) guided by FEP calculation” (Eur J Med Chem, 2024) are described below.

Assay [1] concerns MV4-11. The assay is described as follows: Induction of apoptosis in human MV4-11 cells assessed as early apoptotic cells at 1.25 uM incubated for 24 hrs by annexin V-FITC/PI staining based flow cytometric analysis (reference value: 0%). The class given is functional.
The test system of assay [2] is MV4-11. The experiment in a line: Induction of apoptosis in human MV4-11 cells assessed as early apoptotic cells at 0.625 uM incubated for 24 hrs by annexin V-FITC/PI staining based flow cytometric analysis (reference value: 0%). It counts as functional. In general terms: Flow cytometry measures light scatter and fluorescence of single cells or particles in a stream.

Assay [3] deals with MV4-11. The experiment in a line: Induction of apoptosis in human MV4-11 cells assessed as viable cells at 0.625 uM incubated for 24 hrs by annexin V-FITC/PI staining based flow cytometric analysis (reference value: 97%). It counts as functional.
The subject of assay [4] is MV4-11. The experiment in a line: Induction of apoptosis in human MV4-11 cells assessed as viable cells at 1.25 uM incubated for 24 hrs by annexin V-FITC/PI staining based flow cytometric analysis (reference value: 97%). It counts as functional.
For assay [5], the system named is MV4-11. The assay is described as follows: Induction of apoptosis in human MV4-11 cells assessed as viable cells at 2.5 uM incubated for 24 hrs by annexin V-FITC/PI staining based flow cytometric analysis (reference value: 97%). The class given is functional.
The test system of assay [6] is MV4-11. The experiment in a line: Induction of apoptosis in human MV4-11 cells assessed as viable cells at 5 uM incubated for 24 hrs by annexin V-FITC/PI staining based flow cytometric analysis (reference value: 97%). It counts as functional.
The subject of assay [7] is MV4-11. The experiment in a line: Induction of apoptosis in human MV4-11 cells assessed as viable cells at 10 uM incubated for 24 hrs by annexin V-FITC/PI staining based flow cytometric analysis (reference value: 97%). The class given is functional.
Assay [8] relates to MV4-11. The assay is described as follows: Induction of apoptosis in human MV4-11 cells assessed as early apoptotic cells at 2.5 uM incubated for 24 hrs by annexin V-FITC/PI staining based flow cytometric analysis (reference value: 0%). It counts as functional.
The test system of assay [9] is MV4-11. The assay is described as follows: Induction of apoptosis in human MV4-11 cells assessed as early apoptotic cells at 5 uM incubated for 24 hrs by annexin V-FITC/PI staining based flow cytometric analysis (reference value: 0%). The class given is functional.
Assay [10] relates to MV4-11. The experiment in a line: Induction of apoptosis in human MV4-11 cells assessed as early apoptotic cells at 10 uM incubated for 24 hrs by annexin V-FITC/PI staining based flow cytometric analysis (reference value: 0%). It counts as functional.
Assay [11] concerns MV4-11. The assay is described as follows: Induction of apoptosis in human MV4-11 cells assessed as late apoptotic cells at 0.625 uM incubated for 24 hrs by annexin V-FITC/PI staining based flow cytometric analysis (reference value: 0.04 %). It counts as functional.
Assay [12] concerns MV4-11. The experiment in a line: Induction of apoptosis in human MV4-11 cells assessed as late apoptotic cells at 1.25 uM incubated for 24 hrs by annexin V-FITC/PI staining based flow cytometric analysis (reference value: 0.04 %). It counts as functional.
Assay [13] concerns MV4-11. The assay is described as follows: Induction of apoptosis in human MV4-11 cells assessed as late apoptotic cells at 2.5 uM incubated for 24 hrs by annexin V-FITC/PI staining based flow cytometric analysis (reference value: 0.04 %). The class given is functional.
The test system of assay [14] is MV4-11. The assay is described as follows: Induction of apoptosis in human MV4-11 cells assessed as late apoptotic cells at 5 uM incubated for 24 hrs by annexin V-FITC/PI staining based flow cytometric analysis (reference value: 0.04 %). It counts as functional.
Assay [15] deals with MV4-11. The experiment in a line: Induction of apoptosis in human MV4-11 cells assessed as late apoptotic cells at 10 uM incubated for 24 hrs by annexin V-FITC/PI staining based flow cytometric analysis (reference value: 0.04 %). It counts as functional.
Assay [16] deals with MV4-11. The assay is described as follows: Induction of apoptosis in human MV4-11 cells assessed as necrotic cells at 0.625 uM incubated for 24 hrs by annexin V-FITC/PI staining based flow cytometric analysis (reference value: 2.35 %). It counts as functional.
Assay [17] relates to MV4-11. The experiment in a line: Induction of apoptosis in human MV4-11 cells assessed as necrotic cells at 1.25 uM incubated for 24 hrs by annexin V-FITC/PI staining based flow cytometric analysis (reference value: 2.35 %). It counts as functional.
For assay [18], the system named is MV4-11. The experiment in a line: Induction of apoptosis in human MV4-11 cells assessed as necrotic cells at 2.5 uM incubated for 24 hrs by annexin V-FITC/PI staining based flow cytometric analysis (reference value: 2.35 %). It counts as functional.
Assay [19] deals with MV4-11. The assay is described as follows: Induction of apoptosis in human MV4-11 cells assessed as necrotic cells at 5 uM incubated for 24 hrs by annexin V-FITC/PI staining based flow cytometric analysis (reference value: 2.35 %). The class given is functional.
Assay [20] relates to MV4-11. The experiment in a line: Induction of apoptosis in human MV4-11 cells assessed as necrotic cells at 10 uM incubated for 24 hrs by annexin V-FITC/PI staining based flow cytometric analysis (reference value: 2.35 %). It counts as functional.
Assay [21] relates to MV4-11. The experiment in a line: Induction of cell cycle arrest in human MV4-11 cells assessed as accumulation of cells at G0/G1 phase at 0.3125 uM incubated for 24 hrs by propidium iodide staining flow cytometric analysis (reference value: 34.97 %). It counts as functional.
The test system of assay [22] is MV4-11. The experiment in a line: Induction of cell cycle arrest in human MV4-11 cells assessed as accumulation of cells at G0/G1 phase at 0.625 uM incubated for 24 hrs by propidium iodide staining flow cytometric analysis (reference value: 34.97 %). It counts as functional.
In assay [23] the test system is MV4-11. The assay is described as follows: Induction of cell cycle arrest in human MV4-11 cells assessed as accumulation of cells at G0/G1 phase at 1.25 uM incubated for 24 hrs by propidium iodide staining flow cytometric analysis (reference value: 34.97 %). The class given is functional.
The subject of assay [24] is MV4-11. The experiment in a line: Induction of cell cycle arrest in human MV4-11 cells assessed as accumulation of cells at G0/G1 phase at 2.5 uM incubated for 24 hrs by propidium iodide staining flow cytometric analysis (reference value: 34.97 %). The class given is functional.
Assay [25] deals with MV4-11. The experiment in a line: Induction of cell cycle arrest in human MV4-11 cells assessed as accumulation of cells at G0/G1 phase at 5 uM incubated for 24 hrs by propidium iodide staining flow cytometric analysis (reference value: 34.97 %). It counts as functional.
The subject of assay [26] is MV4-11. The assay is described as follows: Induction of cell cycle arrest in human MV4-11 cells assessed as accumulation of cells at G2/M phase at 0.3125 uM incubated for 24 hrs by propidium iodide staining flow cytometric analysis (reference value: 51.43 %). The class given is functional.
Assay [27] deals with MV4-11. The experiment in a line: Induction of cell cycle arrest in human MV4-11 cells assessed as accumulation of cells at G2/M phase at 0.625 uM incubated for 24 hrs by propidium iodide staining flow cytometric analysis (reference value: 51.43 %). It counts as functional.
The test system of assay [28] is MV4-11. The assay is described as follows: Induction of cell cycle arrest in human MV4-11 cells assessed as accumulation of cells at G2/M phase at 1.25 uM incubated for 24 hrs by propidium iodide staining flow cytometric analysis (reference value: 51.43 %). The class given is functional.
Assay [29] deals with MV4-11. The assay is described as follows: Induction of cell cycle arrest in human MV4-11 cells assessed as accumulation of cells at G2/M phase at 2.5 uM incubated for 24 hrs by propidium iodide staining flow cytometric analysis (reference value: 51.43 %). It counts as functional.
Assay [30] has as its system MV4-11. The assay is described as follows: Induction of cell cycle arrest in human MV4-11 cells assessed as accumulation of cells at G2/M phase at 5 uM incubated for 24 hrs by propidium iodide staining flow cytometric analysis (reference value: 51.43 %). It counts as functional.
Assay [31] deals with MV4-11. The experiment in a line: Induction of cell cycle arrest in human MV4-11 cells assessed as accumulation of cells at S phase at 0.3125 uM incubated for 24 hrs by propidium iodide staining flow cytometric analysis (reference value: 13.08 %). The class given is functional.
Assay [32] concerns MV4-11. The experiment in a line: Induction of cell cycle arrest in human MV4-11 cells assessed as accumulation of cells at S phase at 0.625 uM incubated for 24 hrs by propidium iodide staining flow cytometric analysis (reference value: 13.08 %). It counts as functional.
Assay [33] has as its system MV4-11. The assay is described as follows: Induction of cell cycle arrest in human MV4-11 cells assessed as accumulation of cells at S phase at 1.25 uM incubated for 24 hrs by propidium iodide staining flow cytometric analysis (reference value: 13.08 %). The class given is functional.
Assay [34] deals with MV4-11. The experiment in a line: Induction of cell cycle arrest in human MV4-11 cells assessed as accumulation of cells at S phase at 2.5 uM incubated for 24 hrs by propidium iodide staining flow cytometric analysis (reference value: 13.08 %). It counts as functional.
Assay [35] relates to MV4-11. The experiment in a line: Induction of cell cycle arrest in human MV4-11 cells assessed as accumulation of cells at S phase at 5 uM incubated for 24 hrs by propidium iodide staining flow cytometric analysis (reference value: 13.08 %). It counts as functional.
For assay [36], the system named is MV4-11. The experiment in a line: Antitumor activity against human MV4-11 cells xenografted in BALB/c mouse assessed as tumor growth inhibition relative to control. It counts as functional. (In general: In xenograft studies the graft and the host belong to different species.)
Assay [37] is filed under the species Homo sapiens. Conditions: time 30.0 min.
For assay [38], the species on record is Homo sapiens. The conditions noted are these: time 30.0 min. The source holds these as a separate data set.
The species named for assay [39] is Homo sapiens. Conditions: time 30.0 min. The source holds these as a separate data set.
The test system of assay [40] is MV4-11. The experiment in a line: cells. Conditions: Homo sapiens, MV4-11, 48 h.
Description: Antiproliferative activity against human MV4-11 cells assessed as inhibition of cell growth incubated for 48 hrs by MTT assay
A further assay concerns MOLM-13. The assay is described as follows: cells. The conditions noted are these: Homo sapiens, MOLM-13, 48 h.
A further assay deals with Jurkat. The assay is described as follows: cells. The conditions noted are these: Homo sapiens, 48 h.
The next assay deals with MM1.S. The assay is described as follows: cells. The conditions noted are these: Homo sapiens, 48 h.

SMILES strings stand for the structures.

Description for Jurkat: Antiproliferative activity against human Jurkat cells assessed as inhibition of cell growth incubated for 48 hrs by MTT assay
Description for MM1.S: Antiproliferative activity against human MM1.S cells assessed as inhibition of cell growth incubated for 48 hrs by MTT assay
Description for MOLM-13: Antiproliferative activity against human MOLM-13 cells assessed as inhibition of cell growth incubated for 48 hrs by MTT assay

Regarding `Cc1sc2c(c1C)C(c1ccc(Cl)cc1)=N[C@@H](CC(=O)OC(C)(C)C)c1nnc(C)n1-2`, the Activity in the assay with MV4-11 [1] was 6.52%; in the assay with MV4-11 [2] it was 6.12%; with MV4-11 [3], 80.59%; with MV4-11 [4] it was 80.78%; in the assay with MV4-11 [5] it was 88.78%; in the assay with MV4-11 [6] it was 68.49%. Further, the Activity in the assay with MV4-11 [7] turned out to be 67.33%; in the assay on MV4-11 [8], 7.22%; in the assay on MV4-11 [9], 6.72%; in the assay with MV4-11 [10], 8.62%; in the assay on MV4-11 [11], 4.15%; in the assay on MV4-11 [12] it was 3.38%. Further, the Activity in the assay on MV4-11 [13] was determined as 4.03%; in the assay with MV4-11 [14] it was 4.68%; in the assay with MV4-11 [15], 5.04%; in the assay with MV4-11 [16] it was 0.03%; with MV4-11 [17], 0.03%; with MV4-11 [18], 0%. In addition, the Activity with MV4-11 [19] was 0%; in the assay on MV4-11 [20] it was 0.06%; with MV4-11 [21], 46.96%; in the assay with MV4-11 [22], 46.96%; in the assay with MV4-11 [23], 62.73%; in the assay with MV4-11 [24], 65.43%. The Activity is given as 64.98% with MV4-11 [25]; 11.65% in the assay with MV4-11 [26]; 11.65% with MV4-11 [27]; 18.1% with MV4-11 [28]; 11% with MV4-11 [29]; 11.71% in the assay with MV4-11 [30]. Further, the Activity in the assay with MV4-11 [31] came to 40.75%; with MV4-11 [32], 40.75%; in the assay with MV4-11 [33] it was 19.09%; with MV4-11 [34], 23.24%; with MV4-11 [35] it was 22.85%. In addition, the TGI (in general, how far tumour growth fell short of that in controls) with MV4-11 [36] is recorded as 52.82%. Also, the ΔTm in the assay filed under Homo sapiens [37], in the assay filed under Homo sapiens [38] and in the assay filed under Homo sapiens [39] was 0 °C throughout. Moreover, the half-inhibitory concentration (IC50) (usually the point on the concentration scale where inhibition reaches its midpoint) in the assay on MV4-11 [40] was 1.3 µM; in the assay on MOLM-13, 1.73 µM; in the assay with Jurkat, 16.3 µM; in the assay with MM1.S it was 2.84 µM.
On to `COc1ccc(-n2c(C)nc3cnc4cc(-c5ccc(OC)c(CO)c5)c(OC)cc4c32)cc1`, for which the 50% inhibitory concentration (IC50) in the assay with MV4-11 [40] is 17.9 µM; with MOLM-13 it was over 20 µM; with Jurkat, over 20 µM; in the assay on MM1.S it was 11 µM.
As for `COc1cc2c(cc1-c1ccc(C)cc1)ncc1nc(C)n([C@@H](C)c3ccccc3)c12`, the IC50 is 8.3 µM in the assay on MV4-11 [40], 4.99 µM in the assay on MOLM-13, over 20 µM in the assay with Jurkat and 6.02 µM in the assay on MM1.S.
